Drawing on a melting point compilation (Tetko et al.; mined from patent text by program, amines drawn as free bases though some values may be those of a salt), this text covers melting point for 92 molecules.

Broadly, the melting point is the temperature of the solid-liquid transition. In turn, `CCOC(=O)C(=O)Nc1cc(C)nc(N2CCc3ccccc3C2)c1` gave a melting point of 128 to 129 °C.

Take `CC(c1ccnc(N)c1)C(O)(Cn1cncn1)c1ccc(F)cc1F` (configuration not stated): the melting point lay within 182 to 185 °C.

In turn, `O=C(c1ccc(-c2cccc3ccccc23)nc1)N1Cc2cccn2Cc2ccccc21` gave a melting point of 155 to 158 °C.

The molecule `CCOC(=O)CC(C(=O)c1ccc(Cl)cc1)C(=O)c1ccc(Cl)cc1` showed a melting point of 108 °C.

`CN(C)c1nc(-c2ccccc2O)cs1`: the melting point lay in the range of 201 to 204 °C.

`OCCNc1ncc(CN2CCN(c3ccccc3)CC2)c2nc(-c3ccco3)nn12` had a melting point of 169 °C.

On to `CC(C)(Cc1ccccc1)C(NC(=O)c1ccc(Cl)cc1)Nc1c(Nc2cncc(C(F)(F)F)c2)c(=O)c1=O` (configuration not stated), for which the melting point fell in the range of 194 to 195 °C.

For `Cc1oc2c(NC(=O)c3c(C(=O)OC(C)C)cccc3[N+](=O)[O-])cccc2c1C(C)(C)O`, the melting point lay within 118 to 120 °C.

With `COc1ccc(P2(=O)c3ccccc3CN2c2ccccc2)cc1` (configuration not stated), the melting point fell in the range of 190 to 192 °C.

`O=C1CCC(CSc2ccccc2)C(=O)N1CN1CCCCC1` (configuration not stated) displayed a melting point of 63 to 66 °C.

The molecule `O=[N+]([O-])C1(CNC(CO)(CO)CO)CCCCC1` had a melting point of 110 to 113 °C.

`CC(C)NC(=O)Cn1c(-c2ccc(Cl)cc2)nc2cccnc21` returned a melting point of 248 to 249 °C.

With `O=C1c2ccccc2-c2nn(CCO)c3ccc(NCCNCCO)c1c23`, the melting point was in the range of 209 to 211 °C.

Molecule `O=C(O)COc1ccc(C2=CC(=O)CC(c3ccccc3)C2)c(Cl)c1Cl` (configuration not stated) came in with a melting point of 197 to 199 °C.

For `O=C(O)CCC1(CCC(=O)O)CC(=O)c2ccc(OCCCOc3ccccc3)cc2O1`, the melting point was 132 to 133 °C.

`COc1ccc(S(=O)(=O)Nc2cccc(C)c2N)cc1` registered a melting point of 177 to 178 °C.

For `O=C(O)C(CCCCCCCCCCCC(C(=O)O)C1CC1)C1CC1` (configuration not stated), the melting point is 115 to 118 °C.

`Cc1nccc(-c2cccc(S(=O)(=O)n3c(CCCC(=O)O)cc4nc(Cl)ccc43)c2)n1`: the melting point fell in the range of 178 to 188 °C.

The molecule `CSc1nc(-c2ccc(S(C)(=O)=O)cc2)n(-c2ccc(C)cc2)c(=O)c1C#N` showed a melting point of 242 to 244 °C.

In turn, `O=C(O)C1=Cc2cc(Cl)c(Cl)c(Cl)c2OC1C(F)(F)F` (configuration not stated) had a melting point of 222 to 225 °C.

In turn, `Cc1cccc(-c2ccc([N+](=O)[O-])cc2)c1` came in with a melting point of 59 to 60 °C.

The molecule `Cc1ccc(S(=O)(=O)OCCc2cc3c4ccccc4[nH]c(=O)n3n2)cc1` returned a melting point of 194 to 196 °C.

Regarding `Cc1ccc(S(=O)(=O)N2N=C(c3ccccc3)CC3CCCC32)cc1` (configuration not stated), the melting point was 171 to 176 °C.

`CC(=O)CC1NC(=O)c2sccc2-n2cccc21` (configuration not stated) registered a melting point of 268 °C.

The molecule `COc1ccc(S(=O)(=O)N(CC(=O)NO)Cc2ccccc2)cc1` came in with a melting point of 112 to 114 °C.

Consider `COC(Cc1ccc(OCCN(C)c2nc3ccccc3o2)cc1)C(=O)O` (configuration not stated), for which the melting point is 121 to 123 °C.

Consider `Cn1cc(C(N)=O)c(Nc2ccc(Cl)c(Cl)c2)cc1=O`, for which the melting point was over 250 °C.

`CC(C)Oc1cc(CCCOc2nc(Cc3ccccc3)sc2CC(=O)O)n(Cc2ccc(Cl)cc2Cl)n1` registered a melting point of 106 to 108 °C.

`O=c1c(O)c(-c2nnc(Cc3ccc(F)cc3)o2)[nH]c2ccccc12` displayed a melting point of over 300 °C.

Consider `CCSc1cnc(Oc2ccc(Cl)c(Cl)c2)c(C#N)c1`, for which the melting point lay in the range of 114 to 115 °C.

In the case of `N#Cc1cc2c(nc1Cl)CCCCC2`, the melting point is 126 to 127 °C.

The molecule `c1cn(Cc2ccc(OCc3nnn[nH]3)cc2)cn1` returned a melting point of 189 to 191 °C.

Molecule `CCNC(=O)N1CCCC(n2nnnc2-c2cc(-c3cc(C(C)C)ccc3OC)c(O)cc2O)C1` (configuration not stated) showed a melting point of 223 to 226 °C.

The molecule `O=C(NCCCN1CCCCC1)c1cccc(Nc2ncnc3[nH]cc(C(=O)c4ccccc4)c23)c1` showed a melting point of over 300 °C.

Regarding `CC1C(=O)Oc2c1cccc2S(=O)c1ccccc1Cl` (configuration not stated), the melting point fell in the range of 120 to 122 °C.

The molecule `CC(c1oc2ccccc2c(=O)c1-c1cccc(F)c1)n1ccc2ncnc(Cl)c21` (configuration not stated) came in with a melting point of 166 to 168 °C.

In the case of `O=Cc1cc2c(cc1O)OCCO2`, the melting point lay within 114 to 115 °C.

`COc1ccc(CN2CCC(=C3c4ccc(Cl)cc4CCc4cccnc43)CC2)cn1`: the melting point is 60.2 to 64.1 °C.

As to `Cc1cc(C)c(O)c(Cc2cc(C)cc(C)c2O)c1`, the melting point lay in the range of 125 to 126 °C.

As to `COC(=O)NC(Cc1ccccc1)C1CC(Cc2ccccc2)=NO1` (configuration not stated), the melting point lay in the range of 87 to 88.5 °C.

`O=[N+]([O-])c1ccc(Cc2cccnc2)cc1` came in with a melting point of 87 to 88 °C.

With `O=C1CC=C2CCC(=O)N12`, the melting point lay in the range of 155 to 156 °C.

Consider `COC(=O)C1CC(=O)Nc2ccccc2C1` (configuration not stated), for which the melting point lay within 114 to 115 °C.

Regarding `O=C(O)CCCc1ccc2c(c1)CCC2`, the melting point lay in the range of 57 to 58 °C.

Turning to `Nc1cccc(COc2cccc3c2CN(C2CCC(=O)NC2=O)C3=O)c1` (configuration not stated), the melting point fell in the range of 109 to 113 °C.

In turn, `O=C(O)c1cnc(Cl)cc1C(F)(F)F` had a melting point of 115 to 117 °C.

Consider `COc1ccc(C(=O)NNC(=O)c2occ(-c3ccccc3)c2-c2ccccc2)cc1NC(=O)OC(C)(C)C`, for which the melting point is 137 to 141 °C.

The molecule `N#Cc1nn(-c2c(Cl)cc(C(F)(F)F)cc2Cl)c(N)c1-c1ccsc1C(F)(F)F` showed a melting point of 162 °C.

In turn, `Cc1nn(C)c2[nH]c(=O)c3c(c12)CCCC3` returned a melting point of over 300 °C.

For `CCC#CCCOc1cc(/C=C/C(=O)Nc2ccccc2C(=O)O)ccc1OC`, the melting point lay within 163 to 165 °C.

For `CN(C)Cc1ccccc1C(O)c1ccsc1` (configuration not stated), the melting point lay in the range of 77 to 78 °C.

For the molecule `O=S(=O)(CCl)Nc1ccc(F)cc1Cl`, the melting point was 83 to 85 °C.

`Cc1nnc(-c2ccc3occ(-c4ccc(S(C)=O)cc4)c3n2)o1` (configuration not stated) came in with a melting point of 219 to 220 °C.

Take `COC(=O)CCC1=C(N)CCC1=O`: the melting point lay in the range of 223 to 224 °C.

`O=C(Nc1ccccc1S(=O)(=O)N1CCCCC1)N[C@@H](Cc1ccc(Oc2nccc3ccncc23)cc1)C(=O)O` displayed a melting point of 159 °C.

Regarding `CN(C)c1ncc(-c2nc3cccc(CO)c3o2)cn1`, the melting point was in the range of 212 to 215 °C.

Turning to `CN1CC(=O)N(C(c2ccccc2)c2ccccc2)C1=S`, the melting point lay in the range of 139 to 141 °C.

On to `O=C1CC(c2ccccc2)c2ccc(Cl)cc21` (configuration not stated), for which the melting point lay within 84 to 92 °C.

In turn, `COc1ccc(-c2cc(NC(=O)CCCCN3CCCN(C(C)=O)CC3)n[nH]2)cc1` returned a melting point of 132 to 133 °C.

For `CC(C)(C)[Si](C)(C)Oc1ccc2c(N3C(=O)c4ccccc4C3=O)n[nH]c2c1`, the melting point was in the range of 207 to 209 °C.

In turn, `N#Cc1c(N2CCN(C(=O)c3ccco3)CC2)c2cc(Cl)cnc2[nH]c1=O` displayed a melting point of 303 °C.

For the molecule `CC(C)(C)C(=O)OCn1nnc(-c2cc(Br)ccc2NC(=O)c2cccc(S(=O)(=O)N3CCOCC3)c2)n1`, the melting point is 210 to 212 °C.

`Cc1ccc(C(=O)c2c(C)cc(C)cc2OCC(O)CNC(C)(C)C)cc1` (configuration not stated) had a melting point of 116 to 118 °C.

For `O=C(NC1CCC(O)CC1)C1CC1` (configuration not stated), the melting point fell in the range of 220 to 222 °C.

As to `O=C(c1ccc(Cl)cc1)C(Cn1cncn1)n1cncn1` (configuration not stated), the melting point was 204 °C.

Turning to `O=C(Nc1cccc(NC(=O)C(F)(F)F)c1)Nc1ccc(Cl)c(Cl)c1`, the melting point lay within 221 to 223 °C.

Regarding `Fc1ccc2c(c1)CC[C@H](CNCCNc1ncccn1)O2`, the melting point worked out at 103 °C.

`COc1cc(COC(=O)NCCN2CCOCC2)ccc1OC(C)=O` had a melting point of 82 to 83 °C.

The molecule `Cc1ccc(C(=O)N2CCCC(c3ccc(Cl)cc3)=N2)cc1` yielded a melting point of 163 to 166 °C.

`N#CSc1ccc(O)cc1Br` registered a melting point of 91 to 92 °C.

As for `Cc1nc2cc3c(cc2c(=O)n1COC(=O)C(C)(C)C)CCC3`, the melting point was 128 °C.

On to `NNc1ccc([N+](=O)[O-])cc1S(N)(=O)=O`, for which the melting point lay within 209 to 210 °C.

Regarding `CC(C)c1nc2cc(NC(=O)c3c(C(=O)N4CC(F)C4)cnn3C)ccn2n1`, the melting point lay in the range of 226 to 227 °C.

Molecule `Cc1ccc(-c2nsc3ccccc23)cc1` had a melting point of 56 °C.

In turn, `O=C(Nc1ccc2ccc(Cl)nc2n1)C1=CCC=CC1` returned a melting point of 210 °C.

`CNc1cc(Br)cc(Sc2ccc([N+](=O)[O-])cc2)c1` had a melting point of 96 to 98 °C.

Regarding `O=C(N[C@H](Cc1ccc(C(F)(F)F)cc1)[C@@H](O)c1cccc2ccccc12)c1ccc(C(F)(F)F)cc1` (racemic), the melting point was 232 to 233 °C.

As to `CC(C)n1cc(-c2ccc(C=O)cc2)c2c(N)ncnc21`, the melting point lay within 198 to 200 °C.

Consider `CCCCCCCCCCCCCCCCCC(O)c1ccc(Cl)c(C(=O)O)c1` (configuration not stated), for which the melting point fell in the range of 106 to 107 °C.

For the molecule `COc1ccc2nc(SC3CCCc4ccc(O)nc43)[nH]c2c1` (configuration not stated), the melting point is 217 to 218 °C.

In turn, `CCc1cc(=O)c2nc(OCCO[Si](c3ccccc3)(c3ccccc3)C(C)(C)C)ccc2[nH]1` displayed a melting point of 209 to 210 °C.

`COc1ccc(Oc2ccc(C(=O)CCC#N)cc2)cc1` displayed a melting point of 88 °C.

Turning to `CN(CCCNc1ncc(Cc2ccc(Cl)c(Cl)c2)c(=O)[nH]1)c1ccccn1`, the melting point fell in the range of 86 to 92 °C.

Take `Cc1cc(C(O)(C(F)(F)F)C(F)(F)F)cc(C)c1S`: the melting point fell in the range of 62 to 64 °C.

`C#CCOc1cc(C(=O)O)n(-c2ncc(Cl)cc2Cl)n1`: the melting point lay in the range of 151 to 157 °C.

Turning to `COc1ccc(Nc2nc(-c3ccccc3)cc(N3CCC(OC(=O)CCC(=O)O)CC3)n2)cc1Cl`, the melting point is 218 to 220 °C.

In the case of `CCc1ccc(C(Cl)=NOS(C)(=O)=O)cc1`, the melting point was in the range of 50 to 52 °C.

Take `CC1(CC(=O)Nc2cccc3ncccc23)CCCCC1`: the melting point lay within 133 to 135 °C.

In turn, `O=c1nc(-c2ccccc2)c2cc3c(cc2[nH]1)OCO3` returned a melting point of 351 to 354 °C.

Turning to `CCSC1Oc2ccccc2C(=S)C1(C#N)C(N)=O` (configuration not stated), the melting point fell in the range of 165 to 168 °C.

The molecule `Brc1ccc(-c2csc(Br)n2)cc1` showed a melting point of 117 to 119 °C.

In the case of `COc1cccc(CNC(=O)c2nc3ccc(O)cc3c(=O)[nH]2)c1`, the melting point is 268 to 271 °C.
